± gives the standard deviation of the averaged measurements.
Assay: TIMS collisional cross section (CCS, N2) of the lipid ion; higher = larger ion cross section
Details: ionization mode: positive, one isomer drawn
Description: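 Lipid extracts of human plasma (NIST SRM 1950), mouse liver and HeLa cells were separated by nanoflow C18 LC (30 min gradient, 60 °C) and analysed by TIMS-PASEF on a timsTOF Pro in positive ion mode. Ion mobility was calibrated with the Agilent tuning mix and converted to collisional cross sections (Mason–Schamp) in N2 drift gas. Lipids were identified by MS/MS (SimLipid) and manual curation. SMILES are LIPID MAPS representative structures for the annotated lipid.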

TIMS collisional cross section (sample type: Liver)	TIMS collisional cross section (sample type: plasma)	TIMS collisional cross section (sample type: HeLa)	SMILES
349.3 Å²	349.1 Å²	–	CCCCCCCCCCCCCCCCCCCCCC(=O)OC[C@@H](COC(=O)CCCCCCCCCCCCCCCCC)OC(=O)CCCCCCCCCCCCCCCCCCC [TG 18:0_20:0_22:0] (ion (formula + adduct): [C63H122O6+NH4] 1+)
–	285.8 Å²	–	CCCCC/C=C\C/C=C\C/C=C\C/C=C\CCCC(=O)O[C@H](COC(=O)CCCCCCC/C=C\CCCCCC)COP(=O)([O-])OCC[N+](C)(C)C [PC 16:1@_20:4] (ion (formula + adduct): [C44H78NO8P+H] 1+)
221 Å²	220.3 ± 1.4 Å²	220.9 Å²	CCCCC/C=C\C/C=C\C/C=C\C/C=C\C/C=C\CCC(=O)OC[C@@H](O)COP(=O)(O)OCCN [LPE 22:5] (ion (formula + adduct): [C27H46NO7P+H] 1+)
–	–	279 Å²	CCCCCCCC/C=C\CCCCCCCC(=O)OC[C@H](COP(=O)(O)OCCN)OC(=O)CCCCCCCCCCCCCCCC [PE 18:1_17:0@] (ion (formula + adduct): [C40H78NO8P+H] 1+)
–	–	275 Å²	CCC/C=C\CCCCCCCC/C=C/[C@@H](O)[C@H](COP(=O)([O-])OCC[N+](C)(C)C)NC(=O)CCCCCCCCCCCCC [SM d18:2_14:0@] (ion (formula + adduct): [C37H73N2O6P+H] 1+)
–	–	300.2 Å²	CCCCC/C=C\C/C=C\C/C=C\C/C=C\C/C=C\CCC(=O)O[C@H](COCCCCCCCCCCCCCCCCCC)COP(=O)([O-])OCC[N+](C)(C)C [PC O- 18:0@_22:5] (ion (formula + adduct): [C48H88NO7P+H] 1+)
–	–	328.2 Å²	CC/C=C\C/C=C\C/C=C\C/C=C\C/C=C\CCCCCC(=O)OC[C@@H](COC(=O)CCCCCCC/C=C\CCCCCC)OC(=O)CCC/C=C\C/C=C\C/C=C\C/C=C\CCCCC [TG 16:1_20:4_22:5] (ion (formula + adduct): [C61H98O6+NH4] 1+)
–	332.6 Å²	332.3 Å²	CC/C=C\C/C=C\C/C=C\C/C=C\C/C=C\CCCCCC(=O)OC[C@@H](COC(=O)CCCCCCC/C=C\CCCCCCCC)OC(=O)CCCCCCC/C=C\CCCCCCCC [TG 18:1_18:1_22:5] (ion (formula + adduct): [C61H104O6+NH4] 1+)
288 Å²	–	–	CC/C=C\C/C=C\C/C=C\C/C=C\C/C=C\C/C=C\CCC(=O)O[C@H](COC(=O)CCCCCCCCCCCCCC)COP(=O)([O-])OCC[N+](C)(C)C [PC 15:0_22:6] (ion (formula + adduct): [C45H78NO8P+H] 1+)
337.9 Å²	–	–	CC/C=C\C/C=C\C/C=C\C/C=C\C/C=C\CCCCCC(=O)OC[C@@H](COC(=O)CCCCCCC/C=C\CCCCCCCC)OC(=O)CCCCCCCCC/C=C\CCCCCCCC [TG 18:1_20:1_22:5] (ion (formula + adduct): [C63H108O6+NH4] 1+)
–	310.1 Å²	–	CCCCC/C=C\C/C=C\CCCCCCCC(=O)OC[C@H](COP(=O)([O-])OCC[N+](C)(C)C)OC(=O)CCCCCCCCCCCCCCCCCCCCCCC [PC 18:2@_24:0] (ion (formula + adduct): [C50H96NO8P+H] 1+)
–	246.6 Å²	246.1 Å²	CCCCCCCCCC/C=C\CCCCCCCCCC(=O)OC[C@@H](O)COP(=O)([O-])OCC[N+](C)(C)C [LPC 22:1_0:0] (ion (formula + adduct): [C30H60NO7P+H] 1+)
258.8 Å²	259 ± 0.42 Å²	259 Å²	CCCCCCCCCCCCCCCC(=O)OCC(CO)OC(=O)CCCCCCCCCCCCCCC (configuration not stated) [DG 16:0_16:0_0:0] (ion (formula + adduct): [C35H68O5+NH4] 1+)
–	–	321.4 Å²	CCCCC/C=C\C/C=C\C/C=C\C/C=C\CCCC(=O)OC[C@@H](COC(=O)CCCCCCCCCCCCCCC)OC(=O)CCCCCCC/C=C\CCCCCCC [TG 16:0_17:1_20:4] (ion (formula + adduct): [C56H98O6+NH4] 1+)
271.8 Å²	–	–	CCCCC/C=C\C/C=C\C/C=C\CCCCCCC(=O)O[C@@H](CO)COC(=O)CCCCCCCCCCCCCCCCC [DG 18:0_20:3_0:0] (ion (formula + adduct): [C41H74O5+NH4] 1+)
–	–	276.1 Å²	CCCCCCCCCCCCCCC(=O)O[C@H](COC(=O)CCCCCCCCCCCCC)COP(=O)([O-])OCC[N+](C)(C)C [PC 14:0@_15:0] (ion (formula + adduct): [C37H74NO8P+H] 1+)
–	294.45 ± 0.21 Å²	–	CCCCCCCC/C=C\CCCCCCCCCCCC(=O)N[C@@H](COP(=O)([O-])OCC[N+](C)(C)C)[C@H](O)/C=C/CCCCCCCCCCC [SM d16:1_22:1@] (ion (formula + adduct): [C43H85N2O6P+H] 1+)
–	287.5 Å²	–	CCCCCCCC/C=C\CCCCCCCC(=O)N[C@@H](COP(=O)([O-])OCC[N+](C)(C)C)[C@H](O)/C=C/CCCCCCCCCCCCC [SM d18:1@_18:1@] (ion (formula + adduct): [C41H81N2O6P+H] 1+)
268.7 Å²	–	–	CCCCCC/C=C\CCCCCCCC(=O)OC[C@H](COP(=O)(O)OCCN)OC(=O)CCCCCCCCCCCCCCC [PE 16:1@_16:0] (ion (formula + adduct): [C37H72NO8P+H] 1+)
338.3 Å²	337.55 ± 0.21 Å²	337.8 Å²	CCCCCCCCCCCCCCCCCCCCCC(=O)OC[C@@H](COC(=O)CCCCCCCCCCCCCCC)OC(=O)CCCCCCCCCCCCCCCCC [TG 16:0_18:0_22:0] (ion (formula + adduct): [C59H114O6+NH4] 1+)
299.8 Å²	–	–	CCCCC/C=C\C/C=C\C/C=C\CCCCCCC(=O)O[C@H](COC(=O)CCCCCCCCCCCCCCCCCC)COP(=O)([O-])OCC[N+](C)(C)C [PC 19:0@_20:3] (ion (formula + adduct): [C47H88NO8P+H] 1+)
300.4 Å²	–	–	CCCCC/C=C\C/C=C\C/C=C\C/C=C\CCCCCC(=O)O[C@H](CO/C=C\CCCCCCCCCCCCCCCC)COP(=O)([O-])OCC[N+](C)(C)C [PC P- 18:0@_22:4] (ion (formula + adduct): [C48H88NO7P+H] 1+)
277.2 Å²	–	276 Å²	CCCCC/C=C\C/C=C\CCCCCCCC(=O)O[C@H](COC(=O)CCCCCCC/C=C\CCCCCCCC)COP(=O)(O)OCCN [PE 18:1_18:2] (ion (formula + adduct): [C41H76NO8P+Na] 1+)
291.2 Å²	–	294.6 Å²	CCCC/C=C\CCCCCCCC(=O)OC[C@H](COC(=O)CCCCCCC/C=C\CCCCCC)OC(=O)CCCCCCC/C=C\CCCC [TG 14:1_14:1_16:1] (ion (formula + adduct): [C47H84O6+NH4] 1+)

SMILES	TIMS collisional cross section (sample type: Liver)	TIMS collisional cross section (sample type: plasma)	TIMS collisional cross section (sample type: HeLa)
CCCCCCCCCCCCCC/C=C\OC[C@H](COP(=O)([O-])OCC[N+](C)(C)C)OC(=O)CCCCCCCCCCCCCCC [PC P- 16:0_16:0] (ion (formula + adduct): [C40H80NO7P+H] 1+)	–	284.4 Å²	284.4 Å²

Source: the supplement of paper PMC6965134
